Laboratory results taken from ChEMBL document CHEMBL1201862, “PubChem BioAssay data set” (2004).
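Values below derive from 48-hour exposures of cells grown in 96-well plates, with endpoints linearly interpolated between the two concentrations bracketing the appropriate inhibition level. GI50 marks 50% less growth.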 Active and inactive are the calls of the source. No stated cut-off is given here; in the data, active = GI50 up to about 1.1 µM and inactive = higher.

What was measured:
Assay in all cases: NCI anticancer screen, dose series, 48 h
SK-MEL-28 = tested on: SK-MEL-28
MOLT-4 = tested on: MOLT-4
MDA-MB-231 = tested on: MDA-MB-231
786-0 = tested on: 786-0
MDA-MB-435 = tested on: MDA-MB-435
NCI-H23 = tested on: NCI-H23
Hs-578T = tested on: Hs-578T
A498 = tested on: A498
NCI-H226 = tested on: NCI-H226
UACC-257 = tested on: UACC-257
IGROV-1 = tested on: IGROV-1
KM12 = tested on: KM12
OVCAR-3 = tested on: OVCAR-3
SK-MEL-5 = tested on: SK-MEL-5
HCT-116 = tested on: HCT-116
HOP-62 = tested on: HOP-62
NCI-H460 = tested on: NCI-H460
T47D = tested on: T47D
SF-295 = tested on: SF-295
EKVX = tested on: EKVX

SMILES	GI50 (SK-MEL-28)	GI50 (MOLT-4)	GI50 (MDA-MB-231)	GI50 (786-0)	GI50 (MDA-MB-435)	GI50 (NCI-H23)	GI50 (Hs-578T)	GI50 (A498)	GI50 (NCI-H226)	GI50 (UACC-257)	GI50 (IGROV-1)	GI50 (KM12)	GI50 (OVCAR-3)	GI50 (SK-MEL-5)	GI50 (HCT-116)	GI50 (HOP-62)	GI50 (NCI-H460)	GI50 (T47D)	GI50 (SF-295)	GI50 (EKVX)
CC(C)(C)OC(=O)N1C(=O)C2CCCC21 (stereo unspecified)	> 100 µM (inactive)	> 100 µM (inactive)	> 100 µM (inactive)	> 100 µM (inactive)	> 100 µM (inactive)	> 100 µM (inactive)	> 100 µM (inactive)	> 100 µM (inactive)	> 100 µM (inactive)	> 100 µM (inactive)	> 100 µM (inactive)	> 100 µM (inactive)	> 100 µM (inactive)	> 100 µM (inactive)	> 100 µM (inactive)	> 100 µM (inactive)	> 100 µM (inactive)	> 100 µM (inactive)	–	–
Cc1cccc(NC2=NCCO2)c1Cl	> 100 µM (inactive)	> 100 µM (inactive)	> 100 µM (inactive)	> 100 µM (inactive)	> 100 µM (inactive)	> 100 µM (inactive)	> 100 µM (inactive)	> 100 µM (inactive)	> 100 µM (inactive)	> 100 µM (inactive)	> 100 µM (inactive)	> 100 µM (inactive)	–	> 100 µM (inactive)	> 100 µM (inactive)	> 100 µM (inactive)	> 100 µM (inactive)	> 100 µM (inactive)	> 100 µM (inactive)	> 100 µM (inactive)
Cc1ccc(S(=O)(=O)c2scc(-c3ccccc3)c2C)cc1	> 100 µM (inactive)	42.7 µM (inactive)	> 100 µM (inactive)	> 100 µM (inactive)	91 µM (inactive)	38.1 µM (inactive)	> 100 µM (inactive)	–	> 100 µM (inactive)	74 µM (inactive)	> 100 µM (inactive)	> 100 µM (inactive)	77.3 µM (inactive)	40.2 µM (inactive)	77.1 µM (inactive)	> 100 µM (inactive)	> 100 µM (inactive)	36.5 µM (inactive)	42.8 µM (inactive)	37.6 µM (inactive)
N=c1sc(N2CCOCC2)nn1CC(=O)c1ccccc1	> 100 µM (inactive)	> 100 µM (inactive)	> 100 µM (inactive)	> 100 µM (inactive)	> 100 µM (inactive)	> 100 µM (inactive)	> 100 µM (inactive)	–	> 100 µM (inactive)	> 100 µM (inactive)	> 100 µM (inactive)	> 100 µM (inactive)	66.5 µM (inactive)	> 100 µM (inactive)	> 100 µM (inactive)	> 100 µM (inactive)	> 100 µM (inactive)	76.4 µM (inactive)	> 100 µM (inactive)	> 100 µM (inactive)
CC1(C)[C@@H]2CC[C@@]1(C)[C@@H]1O[C@@H](O[C@@H](CN)c3cc(Cl)c(OCc4ccccc4)c(OCc4ccccc4)c3)C[C@H]21	0.19 µM (active)	0.16 µM (active)	0.155 µM (active)	0.181 µM (active)	0.162 µM (active)	–	0.187 µM (active)	0.199 µM (active)	0.184 µM (active)	0.175 µM (active)	0.179 µM (active)	0.169 µM (active)	0.168 µM (active)	0.178 µM (active)	0.15 µM (active)	0.179 µM (active)	–	0.178 µM (active)	0.183 µM (active)	0.166 µM (active)
COc1ccc(/C=C2\CN(C)Cc3c2nc(O)c(C#N)c3-c2ccc(OC)cc2)cc1	> 100 µM (inactive)	42 µM (inactive)	> 100 µM (inactive)	18.2 µM (inactive)	> 100 µM (inactive)	> 100 µM (inactive)	35.1 µM (inactive)	–	> 100 µM (inactive)	> 100 µM (inactive)	50 µM (inactive)	32.6 µM (inactive)	54.1 µM (inactive)	> 100 µM (inactive)	60.7 µM (inactive)	51.2 µM (inactive)	29.6 µM (inactive)	80.4 µM (inactive)	38.3 µM (inactive)	> 100 µM (inactive)
CCCC1C(C#N)(C#N)C(C#N)=C(N)C1(C)C(C)=O (stereo unspecified)	–	> 100 µM (inactive)	> 100 µM (inactive)	53.3 µM (inactive)	> 100 µM (inactive)	> 100 µM (inactive)	> 100 µM (inactive)	> 100 µM (inactive)	43.7 µM (inactive)	86.9 µM (inactive)	> 100 µM (inactive)	> 100 µM (inactive)	–	65.2 µM (inactive)	73.1 µM (inactive)	–	–	59 µM (inactive)	> 100 µM (inactive)	> 100 µM (inactive)
Cc1cc(-n2nnc(C(=O)O)c2-c2ccccc2)c2ccc(Cl)cc2n1	> 100 µM (inactive)	17.5 µM (inactive)	> 100 µM (inactive)	> 100 µM (inactive)	> 100 µM (inactive)	> 100 µM (inactive)	> 100 µM (inactive)	> 100 µM (inactive)	> 100 µM (inactive)	> 100 µM (inactive)	> 100 µM (inactive)	> 100 µM (inactive)	> 100 µM (inactive)	> 100 µM (inactive)	> 100 µM (inactive)	–	> 100 µM (inactive)	> 100 µM (inactive)	> 100 µM (inactive)	> 100 µM (inactive)
ClC(Cl)(Cl)C(N1CCN(c2ccccc2)CC1)N1CCN(c2ccccc2)CC1	> 100 µM (inactive)	> 100 µM (inactive)	> 100 µM (inactive)	> 100 µM (inactive)	> 100 µM (inactive)	–	> 100 µM (inactive)	> 100 µM (inactive)	> 100 µM (inactive)	> 100 µM (inactive)	> 100 µM (inactive)	> 100 µM (inactive)	–	> 100 µM (inactive)	> 100 µM (inactive)	> 100 µM (inactive)	> 100 µM (inactive)	> 100 µM (inactive)	–	> 100 µM (inactive)
COc1ccc(OCC(=N/NC(=O)c2ccncc2)/N=C/c2ccncc2)cc1	75.5 µM (inactive)	90.2 µM (inactive)	> 100 µM (inactive)	> 100 µM (inactive)	22.6 µM (inactive)	> 100 µM (inactive)	> 100 µM (inactive)	59.3 µM (inactive)	67.5 µM (inactive)	> 100 µM (inactive)	91.2 µM (inactive)	60 µM (inactive)	48.6 µM (inactive)	–	83.9 µM (inactive)	71.8 µM (inactive)	> 100 µM (inactive)	> 100 µM (inactive)	42.9 µM (inactive)	> 100 µM (inactive)
CN1CC(c2ccccc2)=CC2=C1C=CC(=N)/C2=N\N	> 100 µM (inactive)	> 100 µM (inactive)	> 100 µM (inactive)	> 100 µM (inactive)	> 100 µM (inactive)	> 100 µM (inactive)	35.3 µM (inactive)	–	6.65 µM (inactive)	> 100 µM (inactive)	> 100 µM (inactive)	> 100 µM (inactive)	> 100 µM (inactive)	> 100 µM (inactive)	> 100 µM (inactive)	71.8 µM (inactive)	> 100 µM (inactive)	> 100 µM (inactive)	75.3 µM (inactive)	> 100 µM (inactive)
COc1cc(Oc2c(C)c(Cl)c(OC)c(Cl)c2OC)c2c(c1Cl)COC2=O	62.2 µM (inactive)	10 µM (inactive)	24.2 µM (inactive)	17.1 µM (inactive)	31.3 µM (inactive)	18.6 µM (inactive)	54.7 µM (inactive)	49.7 µM (inactive)	27.9 µM (inactive)	31.9 µM (inactive)	17.6 µM (inactive)	20.9 µM (inactive)	–	12.2 µM (inactive)	6.34 µM (inactive)	–	10.7 µM (inactive)	9.73 µM (inactive)	15.6 µM (inactive)	22.3 µM (inactive)
COc1ccc(-n2c(N)c(C#N)c(C#N)c2-c2ccccc2)cc1	–	> 100 µM (inactive)	> 100 µM (inactive)	45.3 µM (inactive)	> 100 µM (inactive)	> 100 µM (inactive)	6.58 µM (inactive)	> 100 µM (inactive)	13.8 µM (inactive)	> 100 µM (inactive)	24.2 µM (inactive)	> 100 µM (inactive)	> 100 µM (inactive)	51.6 µM (inactive)	> 100 µM (inactive)	87.7 µM (inactive)	–	4.57 µM (inactive)	31.8 µM (inactive)	> 100 µM (inactive)
NC(=O)c1ncn(C2C=CC(CP(=O)(O)O)C2)c1N (stereo unspecified)	> 100 µM (inactive)	> 100 µM (inactive)	> 100 µM (inactive)	> 100 µM (inactive)	> 100 µM (inactive)	> 100 µM (inactive)	> 100 µM (inactive)	–	> 100 µM (inactive)	> 100 µM (inactive)	> 100 µM (inactive)	> 100 µM (inactive)	> 100 µM (inactive)	> 100 µM (inactive)	> 100 µM (inactive)	> 100 µM (inactive)	> 100 µM (inactive)	> 100 µM (inactive)	> 100 µM (inactive)	> 100 µM (inactive)
Cc1cc(C(C)(C)C)cc(CNC2CCCCC2)c1O	16.7 µM (inactive)	31.3 µM (inactive)	18 µM (inactive)	16.2 µM (inactive)	19.5 µM (inactive)	15.4 µM (inactive)	20.2 µM (inactive)	16.6 µM (inactive)	–	14.9 µM (inactive)	13.8 µM (inactive)	19.9 µM (inactive)	15.6 µM (inactive)	17 µM (inactive)	15.4 µM (inactive)	20.9 µM (inactive)	14.8 µM (inactive)	14.8 µM (inactive)	16 µM (inactive)	15.7 µM (inactive)
